Series [1] has as its target T1, human SERT amino acid 112 mutant (N112C) (Homo sapiens, UniProt P31645, N112C).
T1 construct: The templates were full-length and nontagged human SERT in pcdna3.1; expressed in transfected cells; host or cells: COS-7
The series is described as follows: Amphetamine-elicited efflux, human SERT amino acid 112 mutant. Format: cell-based. The following applies: 1 μM amphetamine. The method, then:
(§1) COS-7 cells were maintained under the same conditions as above. Efflux experiments were performed 2 days after cell transfection with hSERT or empty vector and plating of the cells in 24-well plates. Cells were washed with room temperature PBS-CM and then loaded with 50 nM [^3H]-serotonin for 1 h. After preloading, cells were washed twice with buffer and then incubated for 10 min with or without substrates at room temperature. After incubation, the supernatant was collected, liquid scintillation fluid added, and the samples counted (Beckman LS-6500 Multi-purpose Scintillation Counter; Beckman Coulter, Brea, Calif.). The cells were solubilized in a solution of 0.1% sodium dodecyl sulfate and 0.1 M NaOH; liquid scintillation fluid was added and tubes were counted as above. All assays were done in quadruplicate.
(§2) The percentage of [^3H]-serotonin efflux among different treatments was calculated by adding counts of supernatant plus cell lysis, with the supernatant counts then divided by the total and multiplied by 100 to yield the percentage of efflux.
(§3) To investigate the role of central domains formed by TMD1 and 6 within SERT, chimeras were produced between the human and parasite SERT and TMD1 and 2 or 6 and 7, respectively, were replaced in the human SERT with their parasite counterparts. […]

The next series addresses SmDAT (Schistosoma mansoni, UniProt E9LD23). Nature of the series: Transport inhibition constants, SmDAT. The format is cell-based.
Series [2] concerns mSERT mutant YETQ-L563V. Nature of the series: Substrate-elicited efflux, mSERT mutant YETQ-L563V. The format is cell-based, mouse. The following applies: up to highest testable concentration. The method, then:
(§4) Efflux is terminated by collecting the supernatant. Both cells and supernatant are counted by liquid scintillation counting. Efflux is calculated as ratio of supernatant over supernatant and cells.

The next series deals with wild-type human SERT (Homo sapiens, UniProt P31645). Nature of the series: Amphetamine-elicited efflux, wild-type human SERT. Format: cell-based. Details: The templates were full-length and nontagged human SERT in pcdna3.1; expressed in transfected cells; host or cells: COS-7, HEK293 or MDCK (uptake); COS-7 (efflux). The following applies: 1 μM amphetamine. On the procedure:
as §1, §2, §3

The target in series [3] is T2, human SERT amino acid 328 mutant (D328C) (Homo sapiens, UniProt P31645, D328C).
T2 construct: The templates were full-length and nontagged human SERT in pcdna3.1; expressed in transfected cells; host or cells: COS-7
The series is described as follows: Amphetamine-elicited efflux, human SERT amino acid 328 mutant. The format is cell-based. The following applies: 1 μM amphetamine. On the procedure:
as §1, §2, §3

In another series the target is SmSERT (Schistosoma mansoni, UniProt Q3I1M7). Nature of the series: Transport inhibition constants, SmSERT. The format is cell-based.
In series [4] the target is T3, NET (Homo sapiens, UniProt P23975).
T3 construct: expressed in transfected cells
The series is described as follows: hNET uptake assay with transporter modulators. The format is cell-based.

Another series deals with T4, hDAT N93A mutant (Homo sapiens, UniProt Q01959, N93A).
T4 construct: expressed in transfected cells; host or cells: COS-7
T4 sequence (Q01959 1-620 N93A): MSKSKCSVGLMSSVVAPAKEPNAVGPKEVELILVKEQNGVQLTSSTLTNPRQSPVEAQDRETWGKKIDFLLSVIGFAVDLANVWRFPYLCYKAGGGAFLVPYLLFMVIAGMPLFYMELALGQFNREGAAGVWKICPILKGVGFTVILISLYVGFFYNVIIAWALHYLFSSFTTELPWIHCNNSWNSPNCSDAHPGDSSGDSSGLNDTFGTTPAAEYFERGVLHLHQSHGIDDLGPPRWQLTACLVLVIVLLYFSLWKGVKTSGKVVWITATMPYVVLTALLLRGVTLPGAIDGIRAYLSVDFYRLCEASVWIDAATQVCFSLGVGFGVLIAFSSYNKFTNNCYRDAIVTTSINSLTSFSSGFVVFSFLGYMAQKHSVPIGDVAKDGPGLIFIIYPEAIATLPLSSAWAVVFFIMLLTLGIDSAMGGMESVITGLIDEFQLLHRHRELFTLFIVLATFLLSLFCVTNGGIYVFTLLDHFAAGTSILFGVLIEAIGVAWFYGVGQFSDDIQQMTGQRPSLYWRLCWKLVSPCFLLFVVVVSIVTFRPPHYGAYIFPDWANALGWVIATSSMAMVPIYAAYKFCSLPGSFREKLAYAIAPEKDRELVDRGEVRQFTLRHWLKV
The series is described as follows: Amphetamine-induced efflux with modulator, hDAT N93A mutant. Format: cell-based. The following applies: low concentrations of amphetamine. The method, then: as §4

A further series has as its system hDAT L89C mutant (L89A). Nature of the series: Dopamine uptake inhibition assay, hDAT L89 mutant. The format is cell-based, human. The method, then: (§5) Mutants are functionally tested in transfected COS-7 cells. Based on the success of the approach that identified the A1 site, the critical residues identified elsewhere herein are tested for changes in uptake kinetics and amphetamine-mediated efflux. Following this initial screen, residues displaying altered activity are tested further in uptake inhibition and ligand displacement assays. For uptake, cells are washed with PBSCM (phosphate-buffered saline with 1 mM MgCl, 0.1 mM CaCl2, 100 μM ascorbic acid, 10 μM clorgyline, 100 μM pargyline, and 10 μM RO 41-0960). To initiate uptake, cells are incubated for 10 min at 25° C. with various concentrations of radiolabeled monoamine. Following uptake, cells are washed and radioactivity is counted using liquid scintillation counting. […] Apparent Km and Vmax are determined using nonlinear regression analysis. The interaction of WT and mutant MAT with psychostimulants and transporter inhibitors is assessed using uptake inhibition assays. Cells are transfected as described elsewhere herein, but before uptake is initiated the cells are preincubated with various concentrations of ligand for 10 min. Uptake is initiated and performed as described elsewhere herein.

The target of another series is T5, hDAT (Homo sapiens, UniProt Q01959).
T5 construct: expressed in transfected cells; host or cells: COS-7, HEK293 or MDCK
Nature of the series: [3H]-dopamine uptake after preincubation with modulator. Format: cell-based. On the procedure: (§6) COS-7, HEK293, and MDCK cells were maintained in Dulbecco modified Eagle medium (3.5 g/l glucose) supplemented with FBS (10% each) at 37° C. with 5% CO2. Uptake experiments were performed 2 days after transfecting DNAs (hSERT, human dopamine transporter [hDAT], chimeras or mutants, or empty vector for background) with TransIT-LT1 (Minis Bio LLC, Madison, Wis., USA) transfection reagent and plating the cells in 24- or 96-well plates.
(§7) The uptake was allowed to continue for 10 min at room temperature and was terminated by washing with PBS-CM. […] Vmax and KM are given as mean±S.D. of three independent experiments. […] EC50 values are given as mean±S.E.M. of at least five independent experiments. Statistical significance between vehicle and drug treatments was assessed using Student t-test or one-way analysis of variance (ANOVA) Dunnett's multiple-comparison test (p<0.05).

For the next series, the target named is T6, WT hDAT (Homo sapiens, UniProt Q01959).
T6 construct: expressed in transfected cells; host or cells: COS-7, HEK293 or MDCK
Nature of the series: Amphetamine-induced efflux with modulator, hDAT WT. The format is cell-based. The following applies: 5 nM amphetamine. The method, then: as §4

The target of series [5] is T3, NET. The series is described as follows: NET interaction with amphetamine in presence of modulator. The format is cell-based. The method, then:
as §5

The target in a further series is T7, SERT (Homo sapiens, UniProt P31645).
T7 construct: The templates were full-length and nontagged human SERT in pcdna3.1; expressed in transfected cells; host or cells: COS-7, HEK293 or MDCK (uptake); COS-7 (efflux)
Nature of the series: [3H]-serotonin uptake after preincubation with modulator. Format: cell-based. The method, then: as §6, §7

For series [6], the system named is mSERT mutant YETQ-L563V. The series is described as follows: Serotonin uptake kinetics, mSERT mutant YETQ-L563V. Format: cell-based, mouse. Conditions: read-out: apparent affinity (Km).
Substrate in series [7]: NCCc1c[nH]c2ccc(O)cc12
The series is described as follows: cells, lysate or membranes. The following applies: other: WT mSERT.

Setting [8] is: read-out: Ki transport inhibition SmDAT.

Results on ten molecules are retold here after patent US9616065B2, “Compositions useful in treating brain-related diseases or disorders and methods using same” (priority 2013, dated 2017).

Entries after “also recorded” stand apart in the source; their conditions may differ. Read-outs that look alike come from different tables or passages of the source.

SmSERT, sequence (Q3I1M7 entry or part of it): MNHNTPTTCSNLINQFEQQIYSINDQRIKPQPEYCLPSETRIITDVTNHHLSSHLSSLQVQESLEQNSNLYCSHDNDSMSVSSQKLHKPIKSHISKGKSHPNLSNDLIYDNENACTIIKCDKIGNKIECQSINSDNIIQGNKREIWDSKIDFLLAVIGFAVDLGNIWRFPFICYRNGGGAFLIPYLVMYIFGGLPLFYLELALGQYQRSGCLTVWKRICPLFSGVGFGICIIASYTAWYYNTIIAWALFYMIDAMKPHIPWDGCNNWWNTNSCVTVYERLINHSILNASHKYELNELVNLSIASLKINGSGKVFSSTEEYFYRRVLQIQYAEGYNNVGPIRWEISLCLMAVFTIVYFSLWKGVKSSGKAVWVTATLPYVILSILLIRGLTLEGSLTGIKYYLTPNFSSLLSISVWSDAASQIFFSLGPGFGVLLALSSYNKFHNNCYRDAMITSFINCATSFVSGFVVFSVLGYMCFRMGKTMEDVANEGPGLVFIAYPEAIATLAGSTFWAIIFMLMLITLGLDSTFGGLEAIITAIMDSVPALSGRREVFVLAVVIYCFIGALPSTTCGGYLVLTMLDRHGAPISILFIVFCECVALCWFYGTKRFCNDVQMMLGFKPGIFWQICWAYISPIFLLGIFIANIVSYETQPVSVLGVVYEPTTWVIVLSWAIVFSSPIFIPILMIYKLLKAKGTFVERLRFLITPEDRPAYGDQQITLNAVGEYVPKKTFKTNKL
SmDAT, sequence (E9LD23 1-727): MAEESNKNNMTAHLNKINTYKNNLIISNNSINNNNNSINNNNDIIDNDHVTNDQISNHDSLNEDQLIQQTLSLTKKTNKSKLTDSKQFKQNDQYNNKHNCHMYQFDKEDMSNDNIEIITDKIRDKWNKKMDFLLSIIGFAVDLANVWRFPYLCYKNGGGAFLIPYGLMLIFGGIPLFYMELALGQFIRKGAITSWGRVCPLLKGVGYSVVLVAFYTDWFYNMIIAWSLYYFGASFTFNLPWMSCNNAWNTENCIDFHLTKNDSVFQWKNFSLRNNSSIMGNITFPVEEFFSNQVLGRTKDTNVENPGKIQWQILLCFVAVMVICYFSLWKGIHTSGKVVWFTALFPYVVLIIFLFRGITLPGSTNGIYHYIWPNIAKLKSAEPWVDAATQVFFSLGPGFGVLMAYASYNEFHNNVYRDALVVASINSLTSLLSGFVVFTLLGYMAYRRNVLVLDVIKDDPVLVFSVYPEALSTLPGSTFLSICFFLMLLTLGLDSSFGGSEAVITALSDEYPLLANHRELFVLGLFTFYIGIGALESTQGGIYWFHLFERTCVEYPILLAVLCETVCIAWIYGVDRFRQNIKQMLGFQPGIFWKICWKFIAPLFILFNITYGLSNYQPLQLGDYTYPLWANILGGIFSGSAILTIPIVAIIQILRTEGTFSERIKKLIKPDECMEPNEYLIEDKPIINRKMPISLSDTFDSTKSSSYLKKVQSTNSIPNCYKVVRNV
T5 sequence (Q01959 whole entry): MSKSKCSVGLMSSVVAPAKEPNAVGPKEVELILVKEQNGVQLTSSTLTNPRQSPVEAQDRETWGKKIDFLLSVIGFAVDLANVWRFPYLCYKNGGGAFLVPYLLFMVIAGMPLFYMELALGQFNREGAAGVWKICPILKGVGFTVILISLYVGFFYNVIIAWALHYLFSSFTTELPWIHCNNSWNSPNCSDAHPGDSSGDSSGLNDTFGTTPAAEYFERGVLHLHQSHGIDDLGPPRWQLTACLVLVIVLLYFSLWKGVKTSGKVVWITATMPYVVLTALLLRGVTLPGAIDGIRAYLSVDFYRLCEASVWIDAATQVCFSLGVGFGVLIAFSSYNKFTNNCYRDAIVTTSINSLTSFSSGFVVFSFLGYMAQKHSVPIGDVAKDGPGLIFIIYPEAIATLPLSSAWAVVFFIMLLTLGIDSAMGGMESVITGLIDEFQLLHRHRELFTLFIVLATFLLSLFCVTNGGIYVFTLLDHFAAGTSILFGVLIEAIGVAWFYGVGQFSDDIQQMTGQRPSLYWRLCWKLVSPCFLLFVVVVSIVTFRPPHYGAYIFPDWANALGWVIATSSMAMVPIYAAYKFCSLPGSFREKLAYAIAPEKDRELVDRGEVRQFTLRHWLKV
T3 sequence (P23975 whole entry): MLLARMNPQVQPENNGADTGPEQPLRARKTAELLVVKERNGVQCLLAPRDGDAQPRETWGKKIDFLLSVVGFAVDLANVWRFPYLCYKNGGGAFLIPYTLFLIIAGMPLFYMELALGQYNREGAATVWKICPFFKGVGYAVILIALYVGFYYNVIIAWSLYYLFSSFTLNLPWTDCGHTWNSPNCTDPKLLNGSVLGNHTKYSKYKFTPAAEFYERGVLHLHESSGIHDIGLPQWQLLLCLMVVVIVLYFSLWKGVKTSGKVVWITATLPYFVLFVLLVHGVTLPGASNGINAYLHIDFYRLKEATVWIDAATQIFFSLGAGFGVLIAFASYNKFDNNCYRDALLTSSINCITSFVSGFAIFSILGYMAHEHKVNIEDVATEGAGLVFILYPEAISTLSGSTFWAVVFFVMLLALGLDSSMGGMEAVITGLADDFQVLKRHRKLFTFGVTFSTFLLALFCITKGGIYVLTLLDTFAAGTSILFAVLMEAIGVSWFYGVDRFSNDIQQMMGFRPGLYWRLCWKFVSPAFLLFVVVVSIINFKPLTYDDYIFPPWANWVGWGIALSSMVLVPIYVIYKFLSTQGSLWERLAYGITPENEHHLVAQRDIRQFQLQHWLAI
T6 sequence (Q01959 whole entry): as the sequence (Q01959 whole entry) above

In the case of `CC(N)Cc1ccccc1` (centres unmarked) [Amphetamine], the values for the amphetamine-elicited efflux entry (in [1]; at wild-type human SERT; in series [3]) were “no significant amphetamine-elicited efflux”, “substantial efflux” and “no significant amphetamine-elicited efflux”, respectively. Also, the Ki was 10 ± 0.5 µM at SmDAT and 393 ± 26 µM on SmSERT. Besides, the “reversal of transport (efflux)” value in the series on mSERT mutant YETQ-L563V [2] is recorded as “did not elicit any significant reversal of transport”.

For `COc1cccc(NC(=O)Cn2c(SCC(=O)Nc3ccc(F)cc3)nnc2-c2ccncc2)c1` [KM-409, N-(4-fluorophenyl)-2-((4-(2-((3-methoxyphenyl)amino)-2-oxoethyl)-5-(pyridin-4-yl)-4H-1,2,4-triazol-3-yl)thio)acetamide], the “activity towards NET” value at NET [4] is recorded as “displayed activity towards NET”.

As to `CC(NC(C)(C)C)C(=O)c1cccc(Cl)c1` (centres unmarked) [Bupropion], at SmDAT (setting [8]), the Ki is 242 ± 36 µM.

The molecule `CN(C)CCCN1c2ccccc2CCc2ccccc21` [Imipramine] gave a Ki on SmSERT of 0.3 ± 0.1 µM.

`CN(C)CCCC1(c2ccc(F)cc2)OCc2cc(C#N)ccc21` (centres unmarked) [Citalopram]: the Ki at SmDAT (setting [8]) is 50.5 ± 4.7 µM.

With `CCc1ccc2[nH]c3nc(SCCNS(=O)(=O)c4ccc(NC(C)=O)cc4)nnc3c2c1` [ATM5], the “effect on amphetamine-elicited efflux” value on hDAT N93A mutant is “blocking amphetamine-elicited efflux; also recorded: blocked”. Moreover, the “affinity of mutant for ATM5 versus WT” value with hDAT L89C mutant (L89A) is recorded as “increased affinity for ATM5”. At hDAT, the “effect on DAT uptake activity / specificity” value was “higher activity towards hDAT than hSERT”; the “shape of concentration response on hDAT uptake” value is “biphasic activity enhancing hDAT activity at low concentrations and inhibiting hDAT function at higher concentrations”. Further, the “effect on DAT uptake activity / specificity” value on hDAT (listed as KM-822) is “specific for DAT”. On WT hDAT, the “effect on amphetamine-mediated efflux” value was “potentiated amphetamine-mediated efflux; also recorded: potentiated amphetamine mediated efflux”.

On to `COC(=O)[C@H]1[C@@H](OC(=O)c2ccccc2)C[C@@H]2CC[C@H]1N2C` [Cocaine], for which the Ki is 29.4 ± 3.6 µM at SmDAT (setting [8]) and 35.4 ± 7.6 µM at SmSERT.

As to `COc1cc(C(C(=O)NCCC(C)C)N(CCCO)C(=O)c2snc(C(N)=O)c2N)ccc1O` (centres unmarked) [ATM2, 4-amino-N^5-{1-(4-hydroxy-3-methoxyphenyl)-2-[(3-methylbutyl)amino]-2-oxoethyl}-N^5-(3-hydroxypropyl)-1,2-thiazole-3,5-dicarboxamide], the “effect on affinity of amphetamine for NET” value at NET [5] is recorded as “affinity for amphetamine was enhanced”. For the same molecule, on SERT, the “effect on SERT uptake activity / specificity” value is given as “higher activity towards SERT”; the “shape of concentration response on transporter uptake” value was “biphasic mode of action, enhancing transporter activity at low concentrations and inhibiting transporter function at higher concentrations”.

On to `NCCc1c[nH]c2ccc(O)cc12` [serotonin], for which the Michaelis constant (Km) in the series with mSERT mutant YETQ-L563V [6] was found to be 4.7 ± 1.3 µM.

B1: WT mSERT (Mus musculus) (protein)
chain: METTPLNSQKVLSECKDKEDCQENGVLQKGVPTPADKAGPGQISNGYSAVPSTSAGDEAPHSTPAATTTLVAEIHQGERETWGKKMDFLLSVIGYAVDLGNIWRFPYICYQNGGGAFLLPYTIMAIFGGIPLFYMELALGQYHRNGCISIWKKICPIFKGIGYAICIIAFYIASYYNTIIAWALYYLISSFTDQLPWTSCKNSWNTGNCTNYFAQDNITWTLHSTSPAEEFYLRHVLQIHQSKGLQDLGTISWQLALCIMLIFTIIYFSIWKGVKTSGKVVWVTATFPYIVLSVLLVRGATLPGAWRGVVFYLKPNWQKLLETGVWVDAAAQIFFSLGPGFGVLLAFASYNKFNNNCYQDALVTSVVNCMTSFVSGFVIFTVLGYMAEMRNEDVSEVAKDAGPSLLFITYAEAIANMPASTFFAIIFFLMLITLGLDSTFAGLEGVITAVLDEFPHIWAKRREWFVLIVVITCILGSLLTLTSGGAYVVTLLEEYATGPAVLTVALIEAVVVSWFYGITQFCSDVKEMLGFSPGWFWRICWVAISPLFLLFIICSFLMSPPQLRLFQYNYPHWSIILGYCIGTSSVICIPIYIIYRLISTPGTLKERIIKSITPETPTEIPCGDIRMNAV
For the molecule B1, the Km in [7] is 3.4 ± 0.7 µM.
